Laboratory results taken from patent publication US20100099640A1, “TISSUE DEGENERATION PROTECTION” (priority 2007, published 2010).

Legend:
[1] = system: atherosclerotic plaques of DKO mice; test: Atherosclerosis: morphometric and immunohistochemical analysis of aortic root cross sections of DKO mice; format: in vivo, mouse; conditions: stevioside 10 mg/kg or steviol 5 mg/kg orally, 12 weeks
Description: Homozygous LDL-receptor-knockout mice (LDLR^(−/−)), heterozygous ob/+, and C57BL6 mice were purchased from Jackson Laboratory, Bar Harbor, Me. LDLR^(−/−) mice were backcrossed into a C57BL6 background to the 10th generation. To obtain DKO mice with combined leptin deficiency (ob/ob) and LDL-receptor deficiency, LDLR^(−/−) and ob/+ mice were crossed. All offspring were genotyped by polymerase chain reaction (PCR) techniques. All mice were housed at 22° C. on a fixed 12/12-hour light/dark cycle. Experimental procedures in animals were performed in accordance with protocols approved by the Institutional Animal Care and Research Advisory Committee. All mice were fed standard chow containing 4% fat (Pavan Service). Food intake was ≈5.7 g/d. Mice (about 50 g) were treated with stevioside (N=14; 10 mg/kg), steviol (N=9; 5 mg/kg) or placebo (N=17) for 12 weeks between 12 and 24 weeks of age. Stevioside (Molecular weight: 804) was dissolved in water (1 mg/ml) and 500 μl of the solution was administered orally. Steviol (Molecular weight: 318) was dissolved in water containing 6% NaHCO3 (1 mg/ml) and 250 μl of the solution was administered orally.
The extent of atherosclerosis was determined by analysis of cross sections from the aortic root. Approximately ten 7-μm frozen sections per staining per animal were used for morphometric and immunohistochemical analysis. Total plaque areas were measured on hematoxylin and eosin stained sections. Lipids were stained with oil-red O, and macrophage areas were stained with an antibody against mouse Mac-3 antigen (Pharmingen), and oxidized LDL with the monoclonal antibody 4E6. Blinded analysis of positive immunostained sections was performed with the Quantimet600 image analyzer (Leica).

[2] = Analysis of steviol metabolites in 24 h human urine after oral stevioside; format: in vivo
Description: Urine Fractionation and Derivatisation of steviol containing fractions. The total 24 h urine fraction (between 1124 and 2494 mL) form human subject subjected to a steviol treatment (three days of oral stevioside administration (750 mg per day)) was run over an Amberlite XAD-2 column at about 30 mL/min. The column bed volume was 200 mL which is sufficient for the adsorption of all amphipathic molecules in 24 h urine. The columns were then rinsed with 1 L of distilled water and then eluted with 400 mL MeOH:Acetone (50:50, v/v). The eluate was divided into 4 equal fractions and the solvent was evaporated at reduced pressure at 50° C.
Fractions containing steviol and/or dihydroisosteviol used as internal standard were completely dried; the residues were taken up in dry acetone and derivatized to form the 7-methoxy-coumarinyl esters as described (Minne, V. et al. J. Agr. Food Chem., 2004, 52, 2445-2449). […] After evaporation of the solvent, the residue was dissolved in a known amount of MeOH and HPLC was done using a fluorescence detector (λexc.: 321 nm, λem.: 391 nm) (Minne, V. et al. J. Agr. Food Chem., 2004, 52, 2445-2449). […]
Isolation of larger amounts of steviol glucuronide. […] Samples of each fraction were analysed by TLC using ethyl acetate:ethanol:water (80:30:20) as solvent and compared with steviol glucuronide as a reference compound. […]

anaesthetised dogs = conditions: 200 mg stevioside powder/kg peroral; cited from earlier work

free steviol in urine ([2]; after oral stevioside, human urine): no free steviol can be detected
Structure (SMILES): C=C1C[C@@]23CC[C@H]4C(C)(CCC[C@@]4(C)C(=O)O[C@@H]4O[C@H](CO)C(O)[C@H](O)C4O)[C@@H]2CCC1(OC1O[C@H](CO)C(O)C(O)C1OC1O[C@H](CO)C(O)[C@H](O)C1O)C3 (stereo in doubt) [stevioside, Kaur-16-en-18-oic acid, 13-[(2-O-b-D-glucopyranosyl-b-D-glucopyranosyl)oxy]-, b-D-glucopyranosyl ester, (4a)-]
lipid deposition in plaques [1]: reducing
macrophage deposition in plaques [1]: reducing
oxLDL deposition in plaques [1]: reducing
plaque volume [1]: lowered
smooth muscle cell (SMC)-to-macrophage ratio (proxy for plaque stability) [1]: increased
metabolite detected in the collected urine ([2]; three days of oral stevioside (750 mg per day), 24 h urine): steviol glucuronide was isolated as the only metabolite detected
blood pressure (anaesthetised dogs): short-term blood pressure reduction
